The values below come from patent EP2524912A1, “Amine derivatives” (Bionomics Limited, priority 2011, dated 2012).

The structures appear in SMILES notation. Some results are limits rather than exact numbers.

Chain of human Kv1.3 (P22001 whole entry): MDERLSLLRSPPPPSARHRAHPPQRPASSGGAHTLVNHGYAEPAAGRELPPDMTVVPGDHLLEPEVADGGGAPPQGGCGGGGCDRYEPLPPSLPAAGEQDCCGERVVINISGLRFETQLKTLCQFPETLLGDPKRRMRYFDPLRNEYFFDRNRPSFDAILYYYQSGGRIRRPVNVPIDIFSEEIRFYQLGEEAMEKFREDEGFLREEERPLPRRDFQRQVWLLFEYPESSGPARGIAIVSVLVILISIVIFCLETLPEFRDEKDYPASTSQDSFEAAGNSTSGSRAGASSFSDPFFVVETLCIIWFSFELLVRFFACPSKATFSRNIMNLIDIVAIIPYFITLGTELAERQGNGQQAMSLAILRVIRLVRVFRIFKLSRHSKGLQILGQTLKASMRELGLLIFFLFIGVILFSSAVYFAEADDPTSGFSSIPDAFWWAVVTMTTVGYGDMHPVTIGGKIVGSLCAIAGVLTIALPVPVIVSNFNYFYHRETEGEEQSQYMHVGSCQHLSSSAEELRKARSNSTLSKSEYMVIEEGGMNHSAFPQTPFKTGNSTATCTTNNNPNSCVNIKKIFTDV

The assay addresses human Kv1.3 (Homo sapiens, UniProt P22001). Kind of assay: Kv1.3 patch-clamp electrophysiology (planar electrode, whole-cell, steady state current). The conditions noted are these: CHO/Kv1.3 stable cell line; steady state current amplitude at end of 500 ms depolarising pulse to +40 mV; values given as ranges; read-out: IC50 (Kv1.3 ephys steady state). It counts as cell-based. As for the experimental part:
The inhibition data shown for the compounds of the list below was calculated using the steady state current amplitude at the end of the depolarising pulse in patch clamp evaluations (as described in the Pharmacology Example 2).
The human Kv1.3 construct (Kv1.3/pENTR, clone IOH61428) was purchased from Invitrogen and subcloned into pcDNA 3.2-DEST (Invitrogen). CHO-K1 cells obtained from ATCC (cat #CCL-61) were transfected with the Kv1.3/pcDNA3.2DEST construct and a stable cell line was developed through two rounds of limiting dilution under G418 selection. Positive (Kv1.3 expressing) clones were identified using electrophysiology.
CHO/Kv1.x stable cell lines were grown in a humidified atmosphere at 37 °C, 5% CO2 in T-75 flasks containing F12 Kaighn's medium supplemented with 10% fetal calf serum, 2 mM L-glutamine, 100 units/ml penicillin, 100 µg/ml streptomycin and 500 µg/ml G418 (to maintain selection). CHO/Kv1.1 and CHO/Kv1.5 cells used for patching were transferred to 33 °C for 48 hours prior to use.
Kv1.x currents were measured using a planar electrode version (Nanion Technologies GMBH) of the patch-clamp technique. Whole-cell Kv1.x current transients were evoked by 500 ms depolarising voltage pulses to +40 mV from a holding potential of -80 mV applied at 10 s intervals for Kv1.1 and Kv1.5 and at 30 s intervals for Kv1.3 to allow adequate time for recovery from inactivation. Cells were continuously bathed in a buffered saline solution containing (mM): 160 NaCl, 4.5 KCI, 2 CaCl2, 1 MgCl2, 5 glucose, 10 HEPES, pH 7.4, 290-310 mOsm.Kg^-1. The internal (pipette) solution contained (mM): 10 NaCl, 70 KF, 75 KCI, 2 MgCl2, 10 HEPES, 10 EGTA, pH 7.2, 290-310 mOsm.Kg^-1. Series resistance compensation (60-80%) was applied when the peak current amplitude exceeded 2 nA.
Compounds were initially dissolved in DMSO to 10 mM. After further dilution in DMSO, compounds were finally diluted in bath solution 1/200 (to give a final DMSO concentration of 0.5%) and applied directly to the recording chamber. Compounds were added at increasing concentrations allowing ample time for steady state block to be achieved between each concentration. Each compound was tested at 5-6 different concentrations on 2-3 cells. IC50 values can be determined by fitting the average normalised reduction of either the current integral or the steady state current amplitude at the end of the depolarising pulse obtained at each compound concentration to the Hill equation. The IC50 data reported herein is based on the steady state calculation.
Regarding `CC(CCN(C(=O)CN1CCCC(F)(F)C1)C(C)c1ccc2c(c1)CCC2)c1ccc(F)cc1` (stereo not drawn) [Example 69], the 50% inhibitory concentration (IC50) is 50 to 200 nM.

As for `CC(c1ccc2c(c1)CCC2)N(CCOc1ccccn1)C(=O)C1(c2ccc(Cl)cc2)CCC1` (stereo not drawn) [Example 50, 1-(4-chlorophenyl)-N-[1-(2,3-dihydro-1H-inden-5-yl)ethyl]-N-[2-(pyridin-2-yloxy)ethyl]cyclobutanecarboxamide], the 50% inhibitory concentration (IC50) lay in the range of 200 to 1000 nM.

Consider `O=C(CCc1ccc(F)cc1)N(Cc1ccccn1)C(c1ccc(Cl)cc1)C1CC1` (stereo not drawn) [Example 9, N-[cyclopropyl(4-chlorophenyl)methyl]-3-(4-fluorophenyl)-N-(pyridin-2-ylmethyl)propanamide], for which the IC50 was in the range of 50 to 200 nM.

As to `O=C(CS(=O)(=O)c1ccc(F)cc1)N(Cc1ccccn1)C(c1ccccc1)C1CC1` (stereo not drawn) [Example 15, N-[cyclopropyl(phenyl)methyl]-2-[(4-fluorophenyl)sulfonyl]-N-(pyridin-2-ylmethyl)acetamide], the concentration for half-maximal inhibition (IC50) lay within 200 to 1000 nM.

Consider `COCc1ccccc1C(C)N(Cc1ccccn1)C(=O)CS(=O)(=O)c1ccc(F)cc1` (stereo not drawn) [Example 65, 2-[(4-fluorophenyl)sulfonyl]-N-{1-[2-(methoxymethyl)phenyl]ethyl}-N-(pyridin-2-ylmethyl)acetamide], for which the IC50 is above 1000 nM.

For the compound `COCc1ccccc1C(C)N(Cc1ccccn1)C(=O)CCc1ccc(F)cc1` (stereo not drawn) [Example 57, 3-(4-fluorophenyl)-N-{1-[2-(methoxymethyl)phenyl]ethyl}-N-(pyridin-2-ylmethyl)propanamide], the 50% inhibitory concentration (IC50) lay in the range of 200 to 1000 nM.

Regarding `CC(CCN(C(=O)CN1CCC(F)CC1)C(C)c1ccc2c(c1)CCC2)c1ccc(F)cc1` (stereo not drawn) [Example 70, N-[1-(2,3-dihydro-1H-inden-5-yl)ethyl]-N-[3-(4-fluorophenyl)butyl]-2-(4-fluoropiperidin-1-yl)acetamide], the IC50 lay within 50 to 200 nM.

For the compound `CC(c1ccccc1)N(Cc1ccccn1)C(=O)CCc1ccc(F)cc1` (stereo not drawn) [Example 42, 3-(4-fluorophenyl)-N-(1-phenylethyl)-N-(pyridin-2-ylmethyl)propanamide], the IC50 fell in the range of 200 to 1000 nM.

Take `CC(c1ccc2c(c1)CCC2)N(CCOc1ccccn1)C(=O)CCc1ccc(F)cc1` (stereo not drawn) [Example 47, N-[1-(2,3-dihydro-1H-inden-5-yl)ethyl]-3-(4-fluorophenyl)-N-[2-(pyridin-2-yloxy)ethyl]propanamide]: the IC50 was 50 to 200 nM.

Consider `COc1ccc(C(C2CC2)N(Cc2ccccn2)C(=O)CCc2ccc(F)cc2)cc1` (stereo not drawn) [Example 2, N-[cyclopropyl(4-methoxyphenyl)methyl]-3-(4-fluorophenyl)-N-(pyridin-2-ylmethyl)propanamide], for which the IC50 lay in the range of 50 to 200 nM.

In the case of `CCC(CC)C(c1ccccc1)N(Cc1ccccn1)C(=O)CCc1ccc(F)cc1` (stereo not drawn) [Example 22, N-(2-ethyl-1-phenylbutyl)-3-(4-fluorophenyl)-N-(pyridin-2-ylmethyl)propanamide], the concentration for half-maximal inhibition (IC50) was 200 to 1000 nM.

Take `O=C(CCc1ccc(F)cc1)N(Cc1ccccn1)C(c1ccc(F)cc1)C1CCCC1` (stereo not drawn) [Example 21, N-[cyclopentyl(4-fluorophenyl)methyl]-3-(4-fluorophenyl)-N-(pyridin-2-ylmethyl)propanamide]: the IC50 lay in the range of 50 to 200 nM.

For the compound `CC(c1ccc2c(c1)CCC2)N(CCOc1cccc(Cl)n1)C(=O)CCc1ccc(F)cc1` (stereo not drawn) [Example 45, N-[1-(2,3-dihydro-1H-inden-5-yl)ethyl]-3-(4-fluorophenyl)-N-[2-(6-chloropyridin-2-yloxy)ethyl]propanamide], the 50% inhibitory concentration (IC50) is 200 to 1000 nM.

As to `CC(c1ccc2c(c1)SC(C)(C)O2)N(Cc1ccccn1)C(=O)CCc1cccc(C(F)(F)F)c1` (stereo not drawn) [Example 62, N-[1-(2,2-dimethyl-1,3-benzoxathiol-5-yl)ethyl]-N-(pyridin-2-ylmethyl)-3-[3-(trifluoromethyl)phenyl]propanamide], the 50% inhibitory concentration (IC50) lay within 200 to 1000 nM.

As for `O=C(C1CC1c1ccc(F)cc1)N(Cc1ccccn1)C(c1ccc(Cl)cc1)C1CC1` (stereo not drawn) [Example 10, N-[(4-chlorophenyl)(cyclopropyl)methyl]-2-(4-fluorophenyl)-N-(pyridin-2-ylmethyl)cyclopropanecarboxamide], the half-inhibitory concentration (IC50) was below 50 nM.

Consider `COc1ccc(C(C2CC2)N(Cc2ccccn2)C(=O)CC(C)c2ccc(F)cc2)cc1` (stereo not drawn) [Example 1, N-[cyclopropyl(4-methoxyphenyl)methyl]-3-(4-fluorophenyl)-N-(pyridin-2-ylmethyl)butanamide], for which the 50% inhibitory concentration (IC50) is below 50 nM.

Consider `CC(c1ccc2c(c1)CCC2)N(CCOc1ccccn1)C(=O)CCCc1ccccc1` (stereo not drawn) [Example 51, N-[1-(2,3-dihydro-1H-inden-5-yl)ethyl]-4-phenyl-N-[2-(pyridin-2-yloxy)ethyl]butanamide], for which the IC50 lay in the range of 50 to 200 nM.

Consider `CC1(C)Oc2ccc(C(C3CC3)N(Cc3ccccn3)C(=O)COc3ccc(F)cc3)cc2S1(=O)=O` (stereo not drawn) [Example 77, N-[cyclopropyl(2,2-dimethyl-3,3-dioxido-1,3-benzoxathiol-5-yl)methyl]-2-(4-fluorophenoxy)-N-(pyridin-2-ylmethyl)acetamide], for which the 50% inhibitory concentration (IC50) was in the range of 50 to 200 nM.

For the compound `COc1ccc(CN(C(=O)CCc2ccc(F)cc2)C(C)c2ccccc2)cn1` (stereo not drawn) [Example 43, 3-(4-fluorophenyl)-N-(1-phenylethyl)-N-(6-methoxypyridin-3-ylmethyl)propanamide], the IC50 fell in the range of 200 to 1000 nM.

Turning to `CC(CC(=O)N(Cc1ccccn1)C(c1ccc(Cl)cc1)C1CC1)S(=O)(=O)c1ccc(F)cc1` (stereo not drawn) [Example 76, N-[(4-chlorophenyl)(cyclopropyl)methyl]-3-[(4-fluorophenyl)sulfonyl]-N-(pyridin-2-ylmethyl)butanamide], the IC50 lay within 50 to 200 nM.

Take `CC(c1ccc2c(c1)[S+]([O-])C(C)(C)O2)N(Cc1ccccn1)C(=O)CCc1cccc(C(F)(F)F)c1` (stereo not drawn) [Example 63, N-[1-(2,2-dimethyl-3-oxido-1,3-benzoxathiol-5-yl)ethyl]-N-(pyridin-2-ylmethyl)-3-[3-(trifluoromethyl)phenyl]propanamide]: the IC50 is above 1000 nM.

In the case of `CC(C)C(c1ccccc1)N(Cc1ccccn1)C(=O)CCc1ccc(F)cc1` (stereo not drawn) [Example 20, 3-(4-fluorophenyl)-N-(2-methyl-1-phenylpropyl)-N-(pyridin-2-ylmethyl)propanamide], the IC50 fell in the range of 50 to 200 nM.

For `CC(c1ccc2c(c1)SC(C)(C)O2)N(Cc1ccccn1)C(=O)CCc1ccc(F)cc1` (stereo not drawn) [Example 54, N-[1-(2,2-dimethyl-1,3-benzoxathiol-5-yl)ethyl]-3-(4-fluorophenyl)-N-(pyridin-2-ylmethyl)propanamide], the half-maximal inhibitory concentration (IC50) was in the range of 200 to 1000 nM.

`Cc1cccc(OCCN(C(=O)CC(C)c2ccc(F)cc2)C(C)c2ccc3c(c2)CCC3)n1` (stereo not drawn) [Example 52, N-[1-(2,3-dihydro-1H-inden-5-yl)ethyl]-3-(4-fluorophenyl)-N-[2-(6-methylpyridin-2-yloxv)ethyl]butanamide]: the half-inhibitory concentration (IC50) lay in the range of 200 to 1000 nM.

Regarding `Cc1cnc(C)c(OCCN(C(=O)CC(C)c2ccc(F)cc2)C(C)c2ccc3c(c2)CCC3)n1` (stereo not drawn) [Example 41, N-[1-(2,3-dihydro-1H-inden-5-yl)ethyl]-3-(4-fluorophenyl)-N-[2-(3,6-dimethylpyrazin-2-yloxy)ethyl]butanamide], the 50% inhibitory concentration (IC50) is 50 to 200 nM.

For the compound `O=C(CCc1ccc(F)cc1)N(Cc1ccccn1)C(c1ccccc1)C1CCCC1` (stereo not drawn) [Example 23, N-[cyclopentyl(phenyl)methyl]-3-(4-fluorophenyl)-N-(pyridin-2-ylmethyl)propanamide], the half-inhibitory concentration (IC50) fell in the range of 50 to 200 nM.

With `CCC(c1ccc2c(c1)CC(C)O2)N(Cc1ccccn1)C(=O)CCc1ccc(F)cc1` (stereo not drawn) [Example 24, 3-(4-fluorophenyl)-N-[1-(2-methyl-2,3-dihydro-1-benzofuran-5-yl)propyl]-N-(pyridin-2-ylmethyl)propanamide], the concentration for half-maximal inhibition (IC50) lay in the range of 50 to 200 nM.

For `CC(CCN(C(=O)c1cccnc1)C(C)c1ccc2c(c1)CCC2)c1ccc(F)cc1` (stereo not drawn) [Example 68, N-[1-(2,3-dihydro-1H-inden-5-yl)ethyl]-N-[3-(4-fluorophenyl)butyl]pyridine-3-carboxamide], the IC50 was 200 to 1000 nM.

Regarding `CC(c1ccc2c(c1)CCC2)N(Cc1ccccn1)C(=O)CCc1ccc(F)cc1` (stereo not drawn) [Example 67, N-[1-(2,3-dihydro-1H-inden-5-yl)ethyl]-3-(4-fluorophenyl)-N-(pyridin-2-ylmethyl)propanamide], the IC50 was in the range of 200 to 1000 nM.

Take `CC(CC(=O)N(Cc1ccccn1)C(C)c1nncn1C)c1ccc(F)cc1` (stereo not drawn) [Example 78, 3-(4-fluorophenyl)-N-[1-(4-methyl-4H-1,2,4-triazol-3-yl)ethyl]-N-(pyridin-2-ylmethyl)butanamide]: the IC50 lay in the range of 200 to 1000 nM.

As usually defined, the IC50 is the concentration that inhibits the measured activity by half.
